PubChem BioAssay AID2060887 (Molecular Pharmacology Branch, DTP, NCI, 2025)

Test system: 782815-120-R-J1-PDC complex spheroid viability
Assay: Anticancer human tumor 782815-120-R-J1-PDC patient-derived colon adenocarcinoma cell line growth inhibition [RAS]
Settings: for IC50: curve of first compound; for viability, T/C: stronger effect = lower value
Procedure, shortened: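 Tumour cells grown as complex spheroids with HUVEC endothelial cells and mesenchymal stem cells, treated with RAS pathway inhibitor combinations. Each agent spans half-log steps from near clinical Cmax, or 10 microM where Cmax is unknown.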

[1] = second compound 0.000949 µM, first compound 0.0316 µM
[2] = second compound 0.000949 µM, first compound 0.1 µM
[3] = second compound 0.000949 µM, first compound 0.316 µM
[4] = second compound 0.000949 µM, first compound 1 µM
[5] = second compound 0.000949 µM, first compound 3.16 µM
[6] = second compound 0.000949 µM, first compound 10 µM
[7] = second compound 0.003 µM, first compound 0.0316 µM
[8] = second compound 0.003 µM, first compound 0.1 µM
[9] = second compound 0.003 µM, first compound 0.316 µM
[10] = second compound 0.003 µM, first compound 1 µM
[11] = second compound 0.003 µM, first compound 3.16 µM
[12] = second compound 0.003 µM, first compound 10 µM
[13] = second compound 0.00949 µM, first compound 0.0316 µM
[14] = second compound 0.00949 µM, first compound 0.1 µM
[15] = second compound 0.00949 µM, first compound 0.316 µM
[16] = second compound 0.00949 µM, first compound 1 µM
[17] = second compound 0.00949 µM, first compound 3.16 µM
[18] = second compound 0.00949 µM, first compound 10 µM
[19] = second compound 0.03 µM, first compound 0.0316 µM
[20] = second compound 0.03 µM, first compound 0.1 µM
[21] = second compound 0.03 µM, first compound 0.316 µM
[22] = second compound 0.03 µM, first compound 1 µM
[23] = second compound 0.03 µM, first compound 3.16 µM
[24] = second compound 0.03 µM, first compound 10 µM
[25] = second compound 0.0949 µM, first compound 0.0316 µM
[26] = second compound 0.0949 µM, first compound 0.1 µM
[27] = second compound 0.0949 µM, first compound 0.316 µM
[28] = second compound 0.0949 µM, first compound 1 µM
[29] = second compound 0.0949 µM, first compound 3.16 µM
[30] = second compound 0.0949 µM, first compound 10 µM
[31] = second compound 0.3 µM, first compound 0.0316 µM
[32] = second compound 0.3 µM, first compound 0.1 µM
[33] = second compound 0.3 µM, first compound 0.316 µM
[34] = second compound 0.3 µM, first compound 1 µM
[35] = second compound 0.3 µM, first compound 3.16 µM
[36] = second compound 0.3 µM, first compound 10 µM
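Further: spheroids exposed to compounds for 7 days before reading.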
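Wherever viability, T/C is given: 100% = DMSO vehicle control viability.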

## NC1c2ccccc2OC12CCN(c1cnc3c(N4CCCc5ncccc54)n[nH]c3n1)CC2 (stereo unspecified) + CCn1c(-c2cccnc2C(C)OC)c2c3cc(ccc31)N1CCOC(CC(NC(=O)C(C(C)C)N(C)C(=O)C3(F)CCN(C(=O)C#CC(C)(C)N(C)C)CC3)C(=O)N3CCCC(N3)C(=O)OCC(C)(C)C2)C1
Second compound 0.000949 µM
  IC50: > 10000 nM
Second compound 0.003 µM
  IC50: > 10000 nM
Second compound 0.00949 µM
  IC50: > 10000 nM
Second compound 0.03 µM
  IC50: > 10000 nM
Second compound 0.0949 µM
  IC50: > 10000 nM
Second compound 0.3 µM
  IC50: > 10000 nM
[1]
  viability, T/C: 97.9%
[2]
  viability, T/C: 105%
[3]
  viability, T/C: 108%
[4]
  viability, T/C: 105%
[5]
  viability, T/C: 93.9%
[6]
  viability, T/C: 77.7%
[7]
  viability, T/C: 91.5%
[8]
  viability, T/C: 104%
[9]
  viability, T/C: 101%
[10]
  viability, T/C: 89.4%
[11]
  viability, T/C: 102%
[12]
  viability, T/C: 85.8%
[13]
  viability, T/C: 96.2%
[14]
  viability, T/C: 109%
[15]
  viability, T/C: 91.5%
[16]
  viability, T/C: 93.2%
[17]
  viability, T/C: 100%
[18]
  viability, T/C: 76.7%
[19]
  viability, T/C: 88.5%
[20]
  viability, T/C: 106%
[21]
  viability, T/C: 95.1%
[22]
  viability, T/C: 98.5%
[23]
  viability, T/C: 91.2%
[24]
  viability, T/C: 80.3%
[25]
  viability, T/C: 89.1%
[26]
  viability, T/C: 93%
[27]
  viability, T/C: 92.6%
[28]
  viability, T/C: 99.7%
[29]
  viability, T/C: 103%
[30]
  viability, T/C: 76.5%
[31]
  viability, T/C: 90.8%
[32]
  viability, T/C: 91.6%
[33]
  viability, T/C: 85.8%
[34]
  viability, T/C: 92.5%
[35]
  viability, T/C: 88.6%
[36]
  viability, T/C: 73.4%

## Cc1nc(N2CCC3(CC2)COC(C)C3N)c(CO)nc1Sc1ccnc(N)c1Cl (stereo unspecified) + CCn1c(-c2cc(N3CCN(C)CC3)cnc2C(C)OC)c2c3cc(ccc31)-c1csc(n1)CC(NC(=O)C1CC1C)C(=O)N1CCCC(N1)C(=O)OCC(C)(C)C2
Second compound 0.000949 µM
  IC50: > 10000 nM
Second compound 0.003 µM
  IC50: > 10000 nM
Second compound 0.00949 µM
  IC50: < 31.6 nM
Second compound 0.03 µM
  IC50: < 31.6 nM
Second compound 0.0949 µM
  IC50: < 31.6 nM
Second compound 0.3 µM
  IC50: < 31.6 nM
[1]
  viability, T/C: 73.5%
[2]
  viability, T/C: 79.3%
[3]
  viability, T/C: 74.7%
[4]
  viability, T/C: 73%
[5]
  viability, T/C: 69.4%
[6]
  viability, T/C: 69.9%
[7]
  viability, T/C: 58.5%
[8]
  viability, T/C: 54.6%
[9]
  viability, T/C: 56%
[10]
  viability, T/C: 49%
[11]
  viability, T/C: 58.4%
[12]
  viability, T/C: 49%
[13]
  viability, T/C: 29.1%
[14]
  viability, T/C: 28.2%
[15]
  viability, T/C: 24.1%
[16]
  viability, T/C: 32.1%
[17]
  viability, T/C: 30.3%
[18]
  viability, T/C: 28.3%
[19]
  viability, T/C: 17.8%
[20]
  viability, T/C: 19%
[21]
  viability, T/C: 18.6%
[22]
  viability, T/C: 18.5%
[23]
  viability, T/C: 22.9%
[24]
  viability, T/C: 19.3%
[25]
  viability, T/C: 15.9%
[26]
  viability, T/C: 17%
[27]
  viability, T/C: 14.5%
[28]
  viability, T/C: 15.5%
[29]
  viability, T/C: 17.3%
[30]
  viability, T/C: 15.4%
[31]
  viability, T/C: 14.3%
[32]
  viability, T/C: 13.8%
[33]
  viability, T/C: 15.9%
[34]
  viability, T/C: 16.4%
[35]
  viability, T/C: 21.3%
[36]
  viability, T/C: 18.6%

## C=CC(=O)N1CCN(c2nc(OCC3CCCN3C)nc3c(F)c(-c4nc(N)cc(C)c4C(F)(F)F)c(Cl)cc23)C(C)C1 (stereo unspecified) + C#Cc1c(F)ccc2cc(O)cc(-c3ncc4c(N5CC6CCC(C5)N6)nc(OCC56CCCN5CC(F)C6)nc4c3F)c12
Second compound 0.0316 µM
  IC50: > 1000 nM
Second compound 0.1 µM
  IC50: > 1000 nM
Second compound 0.316 µM
  IC50: > 1000 nM
Second compound 1 µM
  IC50: > 1000 nM
Second compound 3.16 µM
  IC50: > 1000 nM
Second compound 10 µM
  IC50: > 1000 nM
Second compound 0.0316 µM, first compound 0.00316 µM
  viability, T/C: 98.9%
Second compound 0.0316 µM, first compound 0.01 µM
  viability, T/C: 86.9%
Second compound 0.0316 µM, first compound 0.0316 µM
  viability, T/C: 103%
Second compound 0.0316 µM, first compound 0.1 µM
  viability, T/C: 92.5%
Second compound 0.0316 µM, first compound 0.316 µM
  viability, T/C: 96.9%
Second compound 0.0316 µM, first compound 1 µM
  viability, T/C: 97%
Second compound 0.1 µM, first compound 0.00316 µM
  viability, T/C: 97.3%
Second compound 0.1 µM, first compound 0.01 µM
  viability, T/C: 93.1%
Second compound 0.1 µM, first compound 0.0316 µM
  viability, T/C: 97.5%
Second compound 0.1 µM, first compound 0.1 µM
  viability, T/C: 94%
Second compound 0.1 µM, first compound 0.316 µM
  viability, T/C: 97%
Second compound 0.1 µM, first compound 1 µM
  viability, T/C: 101%
Second compound 0.316 µM, first compound 0.00316 µM
  viability, T/C: 92.6%
Second compound 0.316 µM, first compound 0.01 µM
  viability, T/C: 94.7%
Second compound 0.316 µM, first compound 0.0316 µM
  viability, T/C: 89.2%
Second compound 0.316 µM, first compound 0.1 µM
  viability, T/C: 91.8%
Second compound 0.316 µM, first compound 0.316 µM
  viability, T/C: 98.4%
Second compound 0.316 µM, first compound 1 µM
  viability, T/C: 84.4%
Second compound 1 µM, first compound 0.00316 µM
  viability, T/C: 95.5%
Second compound 1 µM, first compound 0.01 µM
  viability, T/C: 94.6%
Second compound 1 µM, first compound 0.0316 µM
  viability, T/C: 94%
Second compound 1 µM, first compound 0.1 µM
  viability, T/C: 99.2%
Second compound 1 µM, first compound 0.316 µM
  viability, T/C: 101%
Second compound 1 µM, first compound 1 µM
  viability, T/C: 98.3%
Second compound 3.16 µM, first compound 0.00316 µM
  viability, T/C: 97.3%
Second compound 3.16 µM, first compound 0.01 µM
  viability, T/C: 91.7%
Second compound 3.16 µM, first compound 0.0316 µM
  viability, T/C: 95.9%
Second compound 3.16 µM, first compound 0.1 µM
  viability, T/C: 105%
Second compound 3.16 µM, first compound 0.316 µM
  viability, T/C: 101%
Second compound 3.16 µM, first compound 1 µM
  viability, T/C: 90.5%
Second compound 10 µM, first compound 0.00316 µM
  viability, T/C: 106%
Second compound 10 µM, first compound 0.01 µM
  viability, T/C: 104%
Second compound 10 µM, first compound 0.0316 µM
  viability, T/C: 93.6%
Second compound 10 µM, first compound 0.1 µM
  viability, T/C: 99.6%
Second compound 10 µM, first compound 0.316 µM
  viability, T/C: 104%
Second compound 10 µM, first compound 1 µM
  viability, T/C: 91.1%
